Measured values taken from patent publication US8754242B2, “Herbicides” (Syngenta Crop Protection LLC, priority 2007, dated 2014).

Tests used:
Format in all cases: in vivo
[1] = system: Alopecurus myosuroides (ALOMY); test: Test Example 1 post-emergence herbicidal activity; conditions: 360 h, rate 125 g/ha, evaluated 15 days later, read-out: Post-emergence activity ALOMY (100=total damage to plant; 0=no damage to plant)
Summary of the method: (§1)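 Sow in pots of standard soil → grow 1 day (pre-emergence) or 10 days (post-emergence) in glasshouse → spray aqueous formulated compound → grow on under optimum conditions → score damage 0–100 at day 20 (pre) or day 15 (post).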

Setaria faberi (SETFA) [2] = test: Test Example 1 post-emergence herbicidal activity; conditions: 360 h, rate 125 g/ha, evaluated 15 days later, read-out: Post-emergence activity SETFA (100=total damage to plant; 0=no damage to plant)
Summary of the method: as §1

Lolium perenne (LOLPE) [3] = test: Test Example 1 post-emergence herbicidal activity; conditions: 360 h, rate 125 g/ha, evaluated 15 days later, read-out: Post-emergence activity LOLPE (100=total damage to plant; 0=no damage to plant)
Summary of the method: as §1

[4] = system: Digitaria sanguinalis (DIGSA); test: Test Example 1 post-emergence herbicidal activity; conditions: 360 h, rate 125 g/ha, evaluated 15 days later, read-out: Post-emergence activity DIGSA (100=total damage to plant; 0=no damage to plant)
Summary of the method: as §1

Avena fatua (AVEFA) [5] = test: Test Example 1 post-emergence herbicidal activity; conditions: 360 h, rate 125 g/ha, evaluated 15 days later, read-out: Post-emergence activity AVEFA (100=total damage to plant; 0=no damage to plant)
Summary of the method: as §1

[6] = system: Echinochloa crus-galli (ECHCG); test: Test Example 1 post-emergence herbicidal activity; conditions: 360 h, rate 125 g/ha, evaluated 15 days later, read-out: Post-emergence activity ECHCG (100=total damage to plant; 0=no damage to plant)
Summary of the method: as §1

[7] = system: Alopecurus myosuroides (ALOMY); test: Test Example 1 pre-emergence herbicidal activity; conditions: Alopecurus myosuroides, 480 h, rate 250 g/ha, evaluated 20 days later, read-out: Pre-emergence activity ALOMY (100=total damage to plant; 0=no damage to plant)
Summary of the method: as §1

Setaria faberi (SETFA) [8] = test: Test Example 1 pre-emergence herbicidal activity; conditions: Setaria faberi, 480 h, rate 250 g/ha, evaluated 20 days later, read-out: Pre-emergence activity SETFA (100=total damage to plant; 0=no damage to plant)
Summary of the method: as §1

Lolium perenne (LOLPE) [9] = test: Test Example 1 pre-emergence herbicidal activity; conditions: Lolium perenne, 480 h, rate 250 g/ha, evaluated 20 days later, read-out: Pre-emergence activity LOLPE (100=total damage to plant; 0=no damage to plant)
Summary of the method: as §1

[10] = system: Digitaria sanguinalis (DIGSA); test: Test Example 1 pre-emergence herbicidal activity; conditions: Digitaria sanguinalis, 480 h, rate 250 g/ha, evaluated 20 days later, read-out: Pre-emergence activity DIGSA (100=total damage to plant; 0=no damage to plant)
Summary of the method: as §1

Avena fatua (AVEFA) [11] = test: Test Example 1 pre-emergence herbicidal activity; conditions: Avena fatua, 480 h, rate 250 g/ha, evaluated 20 days later, read-out: Pre-emergence activity AVEFA (100=total damage to plant; 0=no damage to plant)
Summary of the method: as §1

[12] = system: Echinochloa crus-galli (ECHCG); test: Test Example 1 pre-emergence herbicidal activity; conditions: Echinochloa crus-galli, 480 h, rate 250 g/ha, evaluated 20 days later, read-out: Pre-emergence activity ECHCG (100=total damage to plant; 0=no damage to plant)
Summary of the method: as §1

Compound | pest or weed control at 125 g/ha [1] | pest or weed control at 125 g/ha (Setaria faberi (SETFA) [2]) | pest or weed control at 125 g/ha (Lolium perenne (LOLPE) [3]) | pest or weed control at 125 g/ha [4] | pest or weed control at 125 g/ha (Avena fatua (AVEFA) [5]) | pest or weed control at 125 g/ha [6] | pest or weed control at 250 g/ha [7] | pest or weed control at 250 g/ha (Setaria faberi (SETFA) [8]) | pest or weed control at 250 g/ha (Lolium perenne (LOLPE) [9]) | pest or weed control at 250 g/ha [10] | pest or weed control at 250 g/ha (Avena fatua (AVEFA) [11]) | pest or weed control at 250 g/ha [12]
Cc1cc(C)c(C2=C(O)[C@@H]3[C@@H]4O[C@@H](C[C@H]4c4ccc(F)nc4)[C@@H]3C2=O)c(C)c1 [Example T129] | 80% | 100% | 70% | 80% | 80% | 100% | 100% | 100% | 90% | 90% | 90% | 100%
CCc1ccc(Br)cc1C1=C(O)[C@H]2[C@@H](C1=O)[C@@H]1CC[C@H]2O1 [Example T134] | 20% | 50% | 20% | 20% | 20% | 70% | 60% | 0% | 70% | 50% | 20% | 20%
CCc1cc(C)cc(CC)c1C1=C(O)[C@@H]2[C@@H]3O[C@@H](C[C@H]3c3ccc(C)cc3Cl)[C@@H]2C1=O [Example T143] | 40% | 40% | 30% | 60% | 60% | 70% | 50% | 70% | 70% | 80% | 20% | 10%
CCc1cc(C)cc(CC)c1C1=C(O)[C@@H]2[C@@H]3O[C@@H](C[C@H]3c3ccc(C)c(F)c3)[C@@H]2C1=O [Example T146] | 80% | 70% | 90% | 70% | 80% | 100% | 70% | 80% | 90% | 80% | 60% | 80%
CCc1cc(C)cc(CC)c1C1=C(O)[C@@H]2[C@@H]3O[C@@H](C[C@H]3c3cc(F)ccc3C)[C@@H]2C1=O [Example T147] | 90% | 70% | 40% | 100% | 90% | 90% | 40% | 60% | 40% | 40% | 0% | 90%
CCc1cc(C)cc(CC)c1C1=C(O)[C@@H]2[C@@H]3O[C@@H](C[C@H]3c3ccc(F)c(Cl)c3)[C@@H]2C1=O [Example T149] | 80% | 70% | 70% | 80% | 90% | 100% | 90% | 80% | 80% | 70% | 60% | 90%
CCc1cc(C)cc(CC)c1C1=C(O)[C@@H]2[C@@H]3O[C@@H](C[C@H]3c3ccc(Cl)c(Cl)c3)[C@@H]2C1=O [Example T150] | 60% | 90% | 40% | 30% | 60% | 100% | 0% | 0% | 30% | 0% | 0% | 40%
CCc1cc(C)cc(CC)c1C1=C(O)[C@@H]2[C@@H]3O[C@@H](C[C@H]3c3ccc(C)c(Cl)c3)[C@@H]2C1=O [Example T151] | 80% | 10% | 30% | 70% | 80% | 80% | 50% | 20% | 60% | 80% | 20% | 40%
CCc1cc(C)cc(CC)c1C1=C(O)[C@@H]2[C@@H]3O[C@@H](C[C@H]3c3cccc(OC)c3)[C@@H]2C1=O [Example T153] | 50% | 20% | 50% | 30% | 80% | 70% | 70% | 70% | 80% | 60% | 70% | 70%
CCc1cc(C)cc(CC)c1C1=C(O)[C@@H]2[C@@H]3O[C@@H](C[C@H]3c3cccc(C(F)(F)F)c3)[C@@H]2C1=O [Example T154] | 90% | 70% | 60% | 70% | 60% | 100% | 70% | 70% | 80% | 70% | 50% | 100%
CCc1cc(C)cc(CC)c1C1=C(O)[C@@H]2[C@@H]3O[C@@H](C[C@H]3c3ccc(Cl)cc3)[C@@H]2C1=O [Example T155] | 90% | 100% | 60% | 100% | 70% | 100% | 60% | 60% | 80% | 70% | 50% | 60%
CCc1cc(C)cc(CC)c1C1=C(O)C2[C@@H](C1=O)[C@@H]1C[C@@H](c3ccc(OC)cc3)[C@H]2O1 (stereo partly drawn) [Example T156] | 90% | 100% | 70% | 70% | 80% | 100% | 70% | 70% | 70% | 70% | 60% | 70%
CCc1cc(C)cc(CC)c1C1=C(O)[C@@H]2[C@@H]3O[C@@H](C[C@H]3c3ccc([N+](=O)[O-])cc3)[C@@H]2C1=O [Example T158] | 90% | 100% | 80% | 100% | 90% | 100% | 60% | 70% | 70% | 70% | 50% | 50%
